Legend:
[1] = target: T1, zebrafish GlyRα1 (full-length glycine receptor α1) (Danio rerio, UniProt O93430); assay: cryo-EM structure in lipid nanodiscs ([…] Å); TEVC in oocytes; type: binding
T1 construct: gene glra1; homopentamer in asolectin/MSP1E3D1 nanodiscs
T1 sequence (O93430 1-444): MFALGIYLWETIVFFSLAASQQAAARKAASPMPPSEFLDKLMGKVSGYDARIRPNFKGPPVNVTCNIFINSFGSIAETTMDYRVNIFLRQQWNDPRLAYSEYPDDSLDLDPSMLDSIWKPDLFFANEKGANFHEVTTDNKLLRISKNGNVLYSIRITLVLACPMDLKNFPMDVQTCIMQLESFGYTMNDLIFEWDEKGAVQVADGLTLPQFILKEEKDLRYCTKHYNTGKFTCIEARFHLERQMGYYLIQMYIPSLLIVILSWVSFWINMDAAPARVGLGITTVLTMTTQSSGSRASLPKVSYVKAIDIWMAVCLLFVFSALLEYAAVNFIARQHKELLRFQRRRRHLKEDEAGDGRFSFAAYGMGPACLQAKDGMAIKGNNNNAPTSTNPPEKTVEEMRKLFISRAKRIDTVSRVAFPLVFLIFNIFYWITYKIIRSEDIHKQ

[2] = target: T1, zebrafish GlyRα1 (full-length glycine receptor α1); assay: cryo-EM structure in lipid nanodiscs ([…] Å) with glycine; TEVC block in oocytes; type: binding
[3] = target: the molecule itself; assay: cryo-EM structure; GlyR in asolectin nanodiscs (MSP1E3D1), ~0.1 mg/ml, buffer A (200 mM NaCl, 20 mM HEPES pH 8.0); no ligand, 5 mM glycine, 5 mM glycine + 3 mM picrotoxin, 1 mM glycine + 0.5 uM ivermectin, or 0.1 mM glycine + 30 uM ivermectin; C5 symmetry imposed

NCC(=O)O [Gly, glycine]
cryo-EM structure in lipid nanodiscs (3.47 Å); TEVC in oocytes [1]: 3D reconstructions reveal an additional small density in the canonical neurotransmitter-binding pocket wedged at the subunit interface in the ECD

C=C(C)[C@@H]1[C@H]2OC(=O)[C@@H]1[C@]1(O)C[C@H]3OC34C(=O)O[C@H]2[C@@]41C.CC(C)(O)[C@@H]1[C@H]2OC(=O)[C@@H]1[C@]1(O)C[C@H]3OC34C(=O)O[C@H]2[C@@]41C (stereo partly drawn) [PTX, picrotoxin]
cryo-EM structure in lipid nanodiscs (3.51 Å) with glycine; TEVC block in oocyte [2]: an additional density was seen in the pore at the mid-level of M2 nestled between Gly2′ and Leu9′

B1: full-length zebrafish glycine receptor α1 (GlyRα1) (receptor, UniProt O93430 25-444, looked up)
chain: ARKAASPMPPSEFLDKLMGKVSGYDARIRPNFKGPPVNVTCNIFINSFGSIAETTMDYRVNIFLRQQWNDPRLAYSEYPDDSLDLDPSMLDSIWKPDLFFANEKGANFHEVTTDNKLLRISKNGNVLYSIRITLVLACPMDLKNFPMDVQTCIMQLESFGYTMNDLIFEWDEKGAVQVADGLTLPQFILKEEKDLRYCTKHYNTGKFTCIEARFHLERQMGYYLIQMYIPSLLIVILSWVSFWINMDAAPARVGLGITTVLTMTTQSSGSRASLPKVSYVKAIDIWMAVCLLFVFSALLEYAAVNFIARQHKELLRFQRRRRHLKEDEAGDGRFSFAAYGMGPACLQAKDGMAIKGNNNNAPTSTNPPEKTVEEMRKLFISRAKRIDTVSRVAFPLVFLIFNIFYWITYKIIRSEDIHKQ
modifications: N-glycan at Asn62
notes: Glycine receptor subunit alpha-1, zebrafish, full-length gene, codon-optimized; residues numbered as in UniProt O93430; Homopentamer; the model begins at Pro31; No thrombin cleavage is told; also called full-length glycine α1 receptor; GlyR–Apo; source: Sf9 cells (baculovirus, pFastBac1), purified (TALON, Superose 6), reconstituted into asolectin nanodiscs with MSP1E3D1
stoichiometry N [3]: 5

Source: publication PMC7385131, “Mechanisms of activation and desensitization of full-length glycine receptor in lipid nanodiscs” (Nature Communications, 2020)
